Where no end group is shown, it is not given here.
System: drug-resistant Mycobacterium tuberculosis
Format: cell-based
Conditions: 10 micrograms per ml; seven days at 37° C.; strain resistant to PAS, streptomycin and isoniazid

Substance	inhibition of the growth of Mycobacterium tuberculosis [%]
D-Ala-Gln-octadecyl ester [Peptide 2]	100
Lys-Ile-Cys-Ile-Arg-Ile-Gln-Ile-Ser-OH (KICIRIQIS-OH) [Peptide 1]	100

Source: patent US20100210562A1, “USE OF IL-1 RECEPTOR PEPTIDE, ALONE OR IN COMBINATION WITH D-ALA-GLN-OCTADECYL ESTER, AS A THERAPEUTIC AGENT” (priority 2007, published 2010)
